In brackets after ≈: the same amount, converted by molar mass. Read-outs that look alike come from different tables or passages of the source.
Key:
X-5563 myeloma = conditions: oral and subcutaneous routes; cited from earlier work
adenocarcinoma 755 = conditions: oral and subcutaneous routes; cited from earlier work
C-1498 leukemia = conditions: oral and subcutaneous routes; cited from earlier work
Solubility = type: physicochemical; conditions: water
mouse neoplasms = conditions: cited from earlier work
[1] = acronycine free base; cited from earlier work
[2] = subcutaneous; cited from earlier work
[3] = intravenous; several instances; autopsy; cited from earlier work

## COc1cc2c(c3c1c(=O)c1ccccc1n3C)C=CC(C)(C)O2 [acronycine]
X-5563 myeloma
  activity against X-5563 myeloma: significant activity
Adenocarcinoma 755
  activity against adenocarcinoma 755: significant activity
C-1498 leukemia
  activity against C-1498 leukemia: significant activity
Solubility; acetone, benzene, listed as base
  solubility (qualitative): soluble in acetone and benzene, insoluble in water
Solubility; read-out: solubility in water
  solubility: 2 to 3 µg/mL (≈ 6.22 to 9.33 µM)
Mouse neoplasms; aqueous suspension, Svoboda et al
  reduction in the size of tumors: significant reductions in the size of a number of tumors
Mouse neoplasms; delayed therapy
  activity in delayed therapy experiments: significant activity in delayed therapy experiments
Mouse neoplasms; intravenous, free base
  antitumor activity, intravenous: only minimum activity
Mouse neoplasms; various routes
  effectiveness by routes of administration: effective by various routes of administration
Mouse neoplasms; wide range of dose levels, Svoboda laboratory
  tumors against which significant activity was demonstrated: 12 of 17
[1]
  solubility: 2 to 3 µg/mL
[2]
  skin irritation or alopecia: no evidence of skin irritation or alopecia
[3]
  blockage of the circulatory system: blockage of the circulatory system was evidenced, autopsy revealing an actual aortic block by the compound itself
